Test results from US20100021945A1, “DETERMINATION OF CHANGES IN CONCENTRATION” (JACOBS UNIVERSITY BREMEN GGMBH, priority 2006, published 2010).

Tests used:
arginase = target: T1, arginase (Homo sapiens, UniProt P05089); test: Arginase inhibitor screening, Hill analysis of fluorescence (DBO-amine/calixarene displacement assay); format: biochemical; details: 0.5 mM arginine, 16 μg/ml arginase, water pH 9.5, 100 μM DBO-amine, 200 μM p-sulphonato-calix[4]arene, 6 min incubation
T1 sequence (P05089 1-322): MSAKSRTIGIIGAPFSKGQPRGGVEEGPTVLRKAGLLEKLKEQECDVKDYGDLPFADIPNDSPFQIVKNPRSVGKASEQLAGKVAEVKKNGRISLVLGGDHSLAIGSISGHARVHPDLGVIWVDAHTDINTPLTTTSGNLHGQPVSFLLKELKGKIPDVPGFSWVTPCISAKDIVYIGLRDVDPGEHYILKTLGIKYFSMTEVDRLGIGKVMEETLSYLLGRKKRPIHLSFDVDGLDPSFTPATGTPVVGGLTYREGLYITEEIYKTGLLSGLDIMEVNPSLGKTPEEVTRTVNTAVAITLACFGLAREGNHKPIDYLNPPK
Procedure: What was selected as a fluorescent dye was 1-aminomethyl-2,3-diazabicyclo[2.2.2]oct-2-ene (101, DBO-amine) and p-sulphonato-calix[4]arene (a cation receptor) was used as the macrocycle, the fluorescence of the DBO-amine 101 being quenched by the calixarene.
The reaction was performed in the presence of 100 μM of the fluorescent dye DBO-amine and 200 μM of p-sulphonato-calix[4]arene in water at a pH of 9.5.
For this purpose, 0.5 mM of arginine was reacted with 16 μg/ml of arginase in different concentrations of the respective inhibitors. The solution (water, pH 9.5) also contained 100 μM of DBO-amine and 200 μM of p-sulphonato-calix[4]arene. For the Hill analysis, the intensity of fluorescence was plotted against the logarithm of the inhibitor concentration after an incubation time of 6 minutes.

[1] = Binding constants to the macrocycle by fluorescent dye (DBO-amine) displacement
Procedure: The binding constants were determined in water at a pH of 7 in the presence of 100 μM of DBO-amine and 200 μM of p-sulphonato-calix[4]arene.

[2] = Binding to macrocycle / dapoxyl displacement in the lysine decarboxylase assay; details: for binding constant K: cucurbit[7]uril, assay in 10 mM NH4OAc buffer pH 6.0
Source text: FIG. 5 is a reaction diagram for the conversion of L-lysine (505, analyte precursor) into cadaverine (503, analyte, removes the fluorescent dye) and CO2 (not shown, most of it escapes from the solution) by L-lysine decarboxylase. Dapoxyl (501) was selected as the fluorescent dye and cucurbit[7]uril (a cation receptor) as the macrocycle, the fluorescence of the dapoxyl (501) being increased by the complexing with cucurbit[7]uril. As a result of conversion of the analyte precursor 505 into the analyte 503, there is a decrease in fluorescence during the enzymatic reaction because more and more dye 501 is removed by the analyte and the increase in the fluorescence of the dapoxyl caused by the macrocycle thus falls off. The cucurbituril acts as a cation receptor which binds the cadaverine analyte 503, which has two positive charges, better than the L-lysine analyte precursor 505, which has a single positive charge (total charge). The schematic representation of the lysine decarboxylase enzyme is again that of the arginase which is used in FIG. 1, because no crystal structure exists for lysine decarboxylase. The representation was produced with the Swiss PdbViewer v3.7 program (http://www.expasy.org/spdbv/).
The reaction was carried out in the presence of 2.5 μM of dapoxyl and 200 μM of cucurbit[7]uril in a 10 mM NH4OAc buffer (pH 6.0). Without any chemical change to the L-lysine, without any radio-active marking, and without any antibodies, the enzymatic reaction could thus be followed easily, directly in solution without any further incubation stages, with the help of a commercially available fluorescence spectrometer (Varian Cary Eclipse, λexc=336 nm, λobs=390 nm in the present case). It can clearly be seen in this case that the binding constants of lysine (K approx. 2000 M^−1) and cadaverine (K>1000000 M^−1) are very different. […] This is not a problem inasmuch as it is generally only the initial speed as it were of an enzymatic reaction which is determined in order to characterise the reaction. […]

Row | Compound | Ki (arginase) [µM] | binding constant K [2] | also measured
1 | N[C@@H](CCCCB(O)O)C(=O)O [ABH, 2(s)-amino-6-boronohexanoic acid] | 1 ± 0.1 | – | –
2 | N[C@@H](CSCCB(O)O)C(=O)O [BEC, S-(2-boronethyl)-L-cysteine] | 4.9 ± 0.5 | – | –
3 | N=C(N)NCCC[C@H](N)C(=O)O [arginine, L-arginine] | – | – | binding constant K to the macrocycle ([1]; water, pH 7, 100 μM DBO-amine, 200 μM p-sulphonato-calix[4]arene): 3170 ± 130 M⁻¹
4 | NCCCCCN [cadaverine] | – | > 1000000 M⁻¹ | concentration enough to remove all the fluorescent dye from the macrocycle ([2]; 2.5 μM dapoxyl, 200 μM cucurbit[7]uril, 10 mM NH4OAc buffer pH 6.0): 100 μm
5 | NCCCC[C@H](N)C(=O)O [lysine, L-lysine] | – | approx. 2000 M^−1 | –
6 | NC(N)=O [urea] | – | – | binding constant to the macrocycle (in words) ([1]; uncharged molecule with a cation receptor, binding can be ignored): extremely low binding constant
